This note sets out measurements from patent publication US20180208605A1, “Substituted Aza Compounds as IRAK-4 Inhibitors” (AURIGENE DISCOVERY TECHNOLOGIES LIMITED, priority 2015, published 2018).

Structures can show the parent of a compound that is named as a salt.

For this assay, the target named is T1, recombinant IRAK-4 kinase (Homo sapiens, UniProt Q9NWZ3).
T1 construct: purchased Millipore, USA
T1 sequence (Q9NWZ3 1-460): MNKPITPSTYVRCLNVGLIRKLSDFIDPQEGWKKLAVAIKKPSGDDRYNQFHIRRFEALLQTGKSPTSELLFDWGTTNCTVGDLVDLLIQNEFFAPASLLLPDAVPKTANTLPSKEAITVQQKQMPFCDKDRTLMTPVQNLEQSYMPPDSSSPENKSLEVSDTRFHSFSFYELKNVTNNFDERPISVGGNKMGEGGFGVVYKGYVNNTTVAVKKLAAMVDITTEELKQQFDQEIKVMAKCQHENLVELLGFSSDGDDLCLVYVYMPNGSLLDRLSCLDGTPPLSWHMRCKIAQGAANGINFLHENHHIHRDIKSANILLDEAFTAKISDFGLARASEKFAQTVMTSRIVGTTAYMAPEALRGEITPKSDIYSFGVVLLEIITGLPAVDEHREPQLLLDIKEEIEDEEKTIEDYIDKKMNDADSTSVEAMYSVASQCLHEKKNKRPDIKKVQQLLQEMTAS
Description: IRAK-4 Biochemical Assay (TR-FRET, percent inhibition). The settings on record: TR-FRET, 20 μM ATP, 100 nM Biotin Histone H3; for inhibition at 0.1 µM: read-out: % inhibition of IRAK-4 @0.1 μM, compound at 0.1 μM; for inhibition at 1 µM: read-out: % inhibition of IRAK-4 @ 1 μM, compound at 1 μM. In outline:
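IRAK-4 pre-incubated with compound 30 min at room temperature in Tris-HCl pH 7.5 buffer with MgCl2, MnCl2 and DTT, then reacted 30 min with 100 nM biotin-histone H3 and 20 μM ATP. EDTA stop with Eu-anti-phospho-H3 (Ser10) and APC-streptavidin. Percent inhibition derived from the 665/615 nm emission ratio at 340 nm excitation.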
In general terms: Time-resolved FRET reads energy transfer from a long-lived donor to a nearby acceptor.

On to `COC1CCN(c2cccc(C(=O)Nc3cc4sc(N5CCOCC5)nc4nc3N3CCCCC3)n2)CC1` [Example 31, 6-(4-methoxypiperidin-1-yl)-N-(2-morpholino-5-(piperidin-1-yl)thiazolo[4,5-b]pyridin-6-yl)picolinamide], for which the inhibition (as a rule, the drop in the measured response relative to a control, in per cent) at 0.1 µM was determined as 90% and the inhibition at 1 µM was found to be 98%.
The matching figures for `Cc1cc(-c2nc(C(=O)Nc3cc4oc(N5CCOCC5)nc4nc3N3CCCC3=O)co2)ccn1` [Example 89, 2-(2-methylpyridin-4-yl)-N-(2-morpholino-5-(2-oxopyrrolidin-1-yl)oxazolo[4,5-b]pyridin-6-yl)oxazole-4-carboxamide hydrochloride]: 26% and 73%.
On to `Cc1ccc(C(=O)Nc2cc3sc(N4CCOCC4)nc3nc2N2CCCCC2)nc1-c1ccc(N)nc1` [Example 85, 6′-amino-3-methyl-N-(2-morpholino-5-(piperidin-1-yl)thiazolo[4,5-b]pyridin-6-yl)-[2,3′-bipyridine]-6-carboxamide], for which the inhibition at 0.1 µM came out at 101% and the inhibition at 1 µM was 100%.
Regarding `Cn1cc(-c2nc(C(=O)Nc3cc4sc(N5CCOCC5)nc4nc3N3CCCCC3)co2)cc(F)c1=O` [Example 13, 2-(5-fluoro-1-methyl-6-oxo-1,6-dihydropyridin-3-yl)-N-(2-morpholino-5-(piperidin-1-yl)thiazolo[4,5-b]pyridin-6-yl)oxazole-4-carboxamide], the inhibition at 0.1 µM was 98% and the inhibition at 1 µM was determined as 98%.
With `O=C(Nc1cc2sc(N3CCOCC3)nc2nc1N1CCCCC1)c1cccc(NC2CCC(CO)CC2)n1` (centres unmarked) [Example 46, 6-((4-(hydroxymethyl)cyclohexyl)amino)-N-(2-morpholino-5-(piperidin-1-yl)thiazolo[4,5-b]pyridin-6-yl)picolinamide], the inhibition at 0.1 µM amounted to 75% and the inhibition at 1 µM was found to be 94%.
In the case of `O=C(Nc1cc2sc(N3CCOCC3)nc2nc1N1CCCCC1)c1ccnc(N2CC[C@@H](O)C2)n1` [Example 59, (R)-2-(3-hydroxypyrrolidin-1-yl)-N-(2-morpholino-5-(piperidin-1-yl)thiazolo[4,5-b]pyridin-6-yl)pyrimidine-4-carboxamide], the inhibition at 0.1 µM is 91% and the inhibition at 1 µM was 99%.
The matching figures for `Cn1cc(-c2nc(C(=O)Nc3cc4sc(N5CCOCC5)nc4nc3N3CCCCC3)co2)ccc1=O` [Example 3, 2-(1-methyl-6-oxo-1,6-dihydropyridin-3-yl)-N-(2-morpholino-5-(piperidin-1-yl)thiazolo[4,5-b]pyridin-6-yl)oxazole-4-carboxamide]: 97% and 98%.
`O=C(Nc1cc2sc(N3CCOCC3)nc2nc1N1CCCCC1)c1cccc(N2CCO[C@@H](CO)C2)n1` [Example 33, (R)-6-(2-(hydroxymethyl)morpholino)-N-(2-morpholino-5-(piperidin-1-yl)thiazolo[4,5-b]pyridin-6-yl)picolinamide]: the inhibition at 0.1 µM was 95% and the inhibition at 1 µM was found to be 97%.
For `O=C(Nc1cc2sc(N3CCOCC3)nc2nc1N1CCCCC1)c1ccnc(N2CCC(O)C2)n1` (centres unmarked) [Example 53, 2-(3-hydroxypyrrolidin-1-yl)-N-(2-morpholino-5-(piperidin-1-yl)thiazolo[4,5-b]pyridin-6-yl)pyrimidine-4-carboxamide], the inhibition at 0.1 µM came out at 90% and the inhibition at 1 µM was found to be 97%.
As for `O=C1CN(c2cccc(C(=O)Nc3cc4sc(N5CCOCC5)nc4nc3N3CCCCC3)n2)CCN1` [Example 61, N-(2-morpholino-5-(piperidin-1-yl)thiazolo[4,5-b]pyridin-6-yl)-6-(3-oxopiperazin-1-yl)picolinamide], the inhibition at 0.1 µM was 84% and the inhibition at 1 µM is 91%.
The matching figures for `O=C(Nc1cc2oc(N3CCOCC3)nc2nc1C1CC1)c1cnn2cccnc12` [Example 107, N-(5-cyclopropyl-2-morpholinooxazolo[4,5-b]pyridin-6-yl)pyrazolo[1,5-a]pyrimidine-3-carboxamide hydrochloride]: 57% and 92%.
As to `O=C(Nc1cc2sc(N3CCOCC3)nc2nc1C(F)(F)F)c1cccc(N2CCC(O)C2)n1` (centres unmarked) [Example 44, 6-(3-hydroxypyrrolidin-1-yl)-N-(2-morpholino-5-(trifluoromethyl)thiazolo[4,5-b]pyridin-6-yl)picolinamide], the inhibition at 0.1 µM was found to be 90% and the inhibition at 1 µM turned out to be 96%.
For the compound `Cc1cc(-c2nc(C(=O)Nc3cc4sc(N5CCOCC5)nc4nc3N3CCC(O)(CO)C3)co2)ccn1` (centres unmarked) [Example 9, N-(5-(3-hydroxy-3-(hydroxymethyl)pyrrolidin-1-yl)-2-morpholinothiazolo[4,5-b]pyridin-6-yl)-2-(2-methylpyridin-4-yl)oxazole-4-carboxamide hydrochloride], the inhibition at 0.1 µM was 101% and the inhibition at 1 µM was 99%.
With `O=C(Nc1cc2sc(N3CCOCC3)nc2nc1N1CCCCC1)c1cncc(N2CCC(O)C2)n1` (centres unmarked) [Example 54, 6-(3-hydroxypyrrolidin-1-yl)-N-(2-morpholino-5-(piperidin-1-yl)thiazolo[4,5-b]pyridin-6-yl)pyrazine-2-carboxamide hydrochloride], the inhibition at 0.1 µM turned out to be 93% and the inhibition at 1 µM came out at 97%.
Turning to `Nc1ccc(-c2cccc(C(=O)Nc3cc4sc(N5CCOCC5)nc4nc3C3CC3)n2)cn1` [Example 51, 6′-amino-N-(5-cyclopropyl-2-morpholinothiazolo[4,5-b]pyridin-6-yl)-[2,3′-bipyridine]-6-carboxamide], the inhibition at 0.1 µM came to 98%.
With `C[C@H](O)Cn1cc(-c2cccc(C(=O)Nc3cc4oc(N5CCOCC5)nc4nc3N3CC[C@@H](O)C3)n2)cn1` [Example 94, 6-(1-((S)-2-hydroxypropyl)-1H-pyrazol-4-yl)-N-(5-((R)-3-hydroxypyrrolidin-1-yl)-2-morpholinooxazolo[4,5-b]pyridin-6-yl)picolinamide], the inhibition at 0.1 µM amounted to 12% and the inhibition at 1 µM was found to be 60%.
Consider `O=C(Nc1cc2sc(N3CCOCC3)nc2nc1N1CCCCC1)c1cnn2cccnc12` [Example 19, N-(2-morpholino-5-(piperidin-1-yl)thiazolo[4,5-b]pyridin-6-yl)pyrazolo[1,5-a]pyrimidine-3-carboxamide], for which the “% inhibition of IRAK-4 @0.1 μM” value (compound at 0.1 μM) is given as 98%. The “% inhibition of IRAK-4 @ 1 μM” value (compound at 1 μM) is listed as 99%.
As to `O=C(Nc1cc2sc(N3CCOCC3)nc2nc1N1CCCCC1)c1cccc(-n2cc(CO)cn2)n1` [Example 69, 6-(4-(hydroxymethyl)-1H-pyrazol-1-yl)-N-(2-morpholino-5-(piperidin-1-yl)thiazolo[4,5-b]pyridin-6-yl)picolinamide], the inhibition at 0.1 µM is 98% and the inhibition at 1 µM came out at 99%.
Regarding `O=C(Nc1cc2sc(N3CCOCC3)nc2nc1N1CCCCC1)c1cccc(N2CCCC(O)C2)n1` (centres unmarked) [Example 55, 6-(3-hydroxypiperidin-1-yl)-N-(2-morpholino-5-(piperidin-1-yl)thiazolo[4,5-b]pyridin-6-yl)picolinamide], the inhibition at 0.1 µM amounted to 94% and the inhibition at 1 µM worked out at 98%.
With `NCC(=O)OC1CCN(c2cccc(C(=O)Nc3cc4sc(N5CCOCC5)nc4nc3N3CCCCC3)n2)CC1` [Example 66, 1-(6-((2-morpholino-5-(piperidin-1-yl)thiazolo[4,5-b]pyridin-6-yl)carbamoyl)pyridin-2-yl)piperidin-4-yl glycinate], the inhibition at 0.1 µM stood at 90% and the inhibition at 1 µM worked out at 95%.
In the case of `CC(N)C(=O)O[C@H]1CCN(c2cccc(C(=O)Nc3cc4sc(N5CCOCC5)nc4nc3N3CCCCC3)n2)C1` (stereo partly drawn) [Example 57, (S)-1-(6-((2-morpholino-5-(piperidin-1-yl)thiazolo[4,5-b]pyridin-6-yl)carbamoyl)pyridin-2-yl)pyrrolidin-3-ylalaninate], the inhibition at 0.1 µM stood at 97% and the inhibition at 1 µM worked out at 98%.
